The target in series [1] is T1, Human 5-lipoxygenase (Homo sapiens, UniProt P09917).
T1 construct: purchased Cayman 60402; host or cells: insect cells
T1 sequence (P09917 1-674): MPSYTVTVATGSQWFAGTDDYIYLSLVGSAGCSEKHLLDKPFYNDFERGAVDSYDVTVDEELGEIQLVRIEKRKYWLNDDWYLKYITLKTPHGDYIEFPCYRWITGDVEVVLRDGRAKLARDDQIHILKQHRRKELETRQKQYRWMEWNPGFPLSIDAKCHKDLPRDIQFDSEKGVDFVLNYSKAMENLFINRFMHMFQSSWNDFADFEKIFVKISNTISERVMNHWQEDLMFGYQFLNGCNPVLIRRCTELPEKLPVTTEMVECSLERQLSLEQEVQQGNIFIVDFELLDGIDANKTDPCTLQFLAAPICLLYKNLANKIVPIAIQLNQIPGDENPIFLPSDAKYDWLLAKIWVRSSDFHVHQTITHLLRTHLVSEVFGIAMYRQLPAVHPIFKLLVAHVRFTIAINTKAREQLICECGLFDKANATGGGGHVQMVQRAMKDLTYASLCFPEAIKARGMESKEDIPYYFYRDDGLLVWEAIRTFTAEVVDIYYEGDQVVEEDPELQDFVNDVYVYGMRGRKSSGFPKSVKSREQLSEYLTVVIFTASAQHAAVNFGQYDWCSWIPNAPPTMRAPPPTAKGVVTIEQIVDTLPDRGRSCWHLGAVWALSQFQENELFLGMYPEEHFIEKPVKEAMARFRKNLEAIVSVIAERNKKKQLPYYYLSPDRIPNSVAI
Nature of the series: Activity of compounds against 5-LO enzyme (LTB4 measurement and/or fluorescence method). Conditions: for inhibition at 10 µM: 5-LO, single concentration of 10 uM in duplicate; for IC50: 6 or 11 point dose response in duplicate. Format: biochemical. Summed up: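 Two read-outs: LTB4 measured by EIA and/or LC/MS/MS with LTB4-d4 standard after 15 min RT compound preincubation with insect-cell 5-LO and a 5 min 37 °C reaction on 3 uM arachidonic acid (0.1 mM ATP, pH 7.4). The room-temperature fluorescence format used 20 uM H2DCFDA, 100 uM ATP, 3 uM arachidonic acid, 5 min; IC50 from 6/11-point curves.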

Drawing on patent publication US9029389B2 (Institut Pasteur Korea, priority 2011, dated 2015), this text covers inhibition, melting point and IC50 for 12 compounds.

Where only a bound is given, the exact number is not on record here.

Regarding `CCc1nc2ccc(Cl)cn2c1C(=O)NCc1ccc(N2CC(C)OC(C)C2)cc1` (centres unmarked) [compound 182, 6-Chloro-N-(4-(2,6-dimethylmorpholino)benzyl)-2-ethylimidazo[1,2-a]pyridine-3-carboxamide], the melting point was in the range of 176 to 177 °C. The compound further registered an inhibition at 10 µM in series [1] below 40%.

In turn, `CCc1nc2cc(Cl)ccn2c1C(=O)NCc1ccc(N2CC(C)OC(C)C2)cc1` (centres unmarked) [compound 183, 7-Chloro-N-(4-(2,6-dimethylmorpholino)benzyl)-2-ethylimidazo[1,2-a]pyridine-3-carboxamide] gave a melting point of 165 to 166 °C. This compound also gave an inhibition at 10 µM in series [1] below 40%.

As for `Cc1nc2ccc(Cl)cn2c1C(=O)NCc1ccc(OC(F)(F)F)cc1` [compound 184, 6-Chloro-2-methyl-N-(4-(trifluoromethoxy)benzyl)imidazo[1,2-a]pyridine-3-carboxamide], the melting point was in the range of 192 to 193 °C. The inhibition at 10 µM in series [1] was below 40%.

Turning to `CCc1nc2cc(Cl)ccn2c1C(=O)NCc1ccc(Oc2ccc(F)cc2)nc1` [compound 188, 7-Chloro-2-ethyl-N-((6-(4-fluorophenoxy)pyridin-3-yl)methyl)imidazo[1,2-a]pyridine-3-carboxamide], the melting point is 167 to 167.6 °C. The inhibition at 10 µM in series [1] lay in the range of 40 to 69%.

Compound `CCc1nc2ccc(Cl)cn2c1C(=O)NCc1ccc(Oc2ccc(OC(F)(F)F)cc2)nc1` [compound 189, 6-Chloro-2-ethyl-N-((6-(4-(trifluoromethoxy)phenoxy)pyridin-3-yl)methyl)imidazo[1,2-a]pyridine-3-carboxamide] yielded a melting point of 154 to 155 °C. Also, in series [1], the inhibition at 10 µM is above 69% and the IC50 was below 1 µM.

Compound `CCc1nc2ccc(Cl)cn2c1C(=O)NCc1ccc(N2CCCC2)cc1` [compound 191, 6-Chloro-2-ethyl-N-(4-(pyrrolidin-1-yl)benzyl)imidazo[1,2-a]pyridine-3-carboxamide] yielded a melting point of 222 to 223 °C. In addition, the inhibition at 10 µM in series [1] is below 40%.

Regarding `CCc1nc2ccc(Cl)cn2c1C(=O)NCc1ccc(N2CC(C)CC(C)C2)cc1` (centres unmarked) [compound 197, 6-Chloro-N-(4-(3,5-dimethylpiperidin-1-yl)benzyl)-2-ethylimidazo[1,2-a]pyridine-3-carboxamide], the melting point was in the range of 157.2 to 158 °C. In series [1], the inhibition at 10 µM is above 69% and the half-maximal inhibitory concentration (IC50) was above 20 µM.

In turn, `CCc1nc2cc(Cl)ccn2c1C(=O)NCc1ccc(N2CC(C)CC(C)C2)cc1` (centres unmarked) [compound 198, 7-Chloro-N-(4-(3,5-dimethylpiperidin-1-yl)benzyl)-2-ethylimidazo[1,2-a]pyridine-3-carboxamide] registered a melting point of 181.5 to 182.8 °C. In series [1], the inhibition at 10 µM lay within 40 to 69%.

`CCc1nc2cc(Cl)ccn2c1C(=O)NCc1ccc(N2CCC(O)CC2)cc1` [compound 199, 7-Chloro-2-ethyl-N-(4-(4-hydroxypiperidin-1-yl)benzyl)imidazo[1,2-a]pyridine-3-carboxamide] yielded a melting point of 179.1 to 180 °C. The inhibition at 10 µM in series [1] was below 40%.

On to `CCc1nc2cc(Cl)ccn2c1C(=O)NCc1ccc(N2C=CC(=O)CC2)cc1` [compound 201, 7-Chloro-2-ethyl-N-(4-(4-oxo-3,4-dihydropyridin-1(2H)-yl)benzyl)imidazo[1,2-a]pyridine-3-carboxamide], for which the melting point was in the range of 201.3 to 202.8 °C. The same compound registered an inhibition at 10 µM in series [1] below 40%.

Take `CCc1nc2cc(Cl)ccn2c1C(=O)NCc1cccc(-c2ccc(OC(F)(F)F)cc2)c1` [compound 204, 7-Chloro-2-ethyl-N-((4′-(trifluoromethoxy)biphenyl-3-yl)methyl)imidazo[1,2-a]pyridine-3-carboxamide]: the melting point came out at 192.6 °C. The compound further displayed an inhibition at 10 µM in series [1] below 40%.

For `CCc1nc2ccc(Br)cn2c1C(=O)NCc1ccc(OCc2ccc(OC(F)(F)F)cc2)cc1` [compound 206, 6-Bromo-2-ethyl-N-(4-(4-(trifluoromethoxy)benzyloxy)benzyl)imidazo[1,2-a]pyridine-3-carboxamide], the melting point amounted to 189.7 °C. Further, the inhibition at 10 µM in series [1] is below 40%.

Usually inhibition stands for how much of the control response was suppressed. Read a low inhibition as little suppression. The term melting point denotes the temperature, or range, at which the solid turns liquid. In general, IC50 refers to the concentration that gives 50% inhibition.
